Laboratory results taken from patent publication US8039532B2, “Heterocyclic compound, ultraviolet absorbent and composition containing the same” (Fujifilm Corporation, priority 2007, dated 2011).

Tests used:
Type in all cases: physicochemical
[1] = UV spectrum of sample solutions in ethyl acetate (Example 38); details: ethyl acetate solution, 1 cm quartz cell
Protocol: The absorption maximum wavelength and the half width specified in the present invention can be determined easily by a skilled person in the art. The measuring methods are described, for example, in Chemical Society of Japan Ed., “Experimental Chemistry Lecture, Chapter 7, Spectroscopy II”, 4th Ed., (Maruzen, 1992), p. 180 to 186. Specifically, they are determined by dissolving a sample in a suitable solvent and measuring the spectrum in a spectrophotometer by using two quartz or glass cells for the sample and control. For example, the solvent for use is required to be capable of dissolving the sample, have no absorption in the measurement wavelength range, have smaller interaction with the solute molecule, and have relatively low volatility. Any solvent may be used, as long as it satisfies the conditions above. In the present invention, the measurement is made by using ethyl acetate (EtOAc) as the solvent.
The absorption maximum wavelength and the half width of the dyes in the present invention are determined by preparing a solution in ethyl acetate as the solvent at a concentration of approximately 5×10^−5 mol·dm^−3 and by measurement while using a quartz cell having an optical path length of 10 mm.
The spectral half width is described, for example, in Chemical Society of Japan Ed., “Experimental Chemistry Lecture, Chapter 3 Basic Operation III”, 4th Ed., (Maruzen, 1991), p. 154. The half width is described in the literature above by using wave number as abscissa, but the half width is plotted against wavelength in the present invention and thus, the unit of the half value width is nm. Specifically, it is defined as the width of the absorption band at an absorbance of ½ of that at the absorption maximum wavelength and used as an indicator of the absorption spectral shape.
One mg of the Exemplified Compound (1) was dissolved in 100 ml of ethyl acetate, to give a sample solution. Similarly, sample solutions of Exemplified Compounds (2), (11), (12), (24), (81), (82), (87) and (88), respectively, were prepared. In addition, two mg of the comparative compound 1 was dissolved in 100 ml of ethyl acetate, to give a sample solution. Similarly, sample solutions of the comparative compounds 2 (the exemplified compound VIII described in JP-B-49-11155), 11 and 12, respectively, were also prepared. The UV spectrum of each sample solution was determined in a 1 cm quartz cell by using Spectrophotometer UV-3600 (product name) manufactured by Shimadzu Corporation. Based on the thus-obtained spectrum chart, were calculated the maximum absorption wavelength, the molar extinction coefficient (ε) at the maximum absorption wavelength and the half width (a width of absorption band corresponding to a half extinction at the maximum absorption wavelength).

[2] = Degree of coloring of UV agent-containing polyethylene terephthalate films (Example 43); design: key to Colored (visual): ∘: Not colored; Δ: Slightly colored; x: Distinctly colored; details: PET film 50 μm; for absorbance at 420 nm / absorbance at 440 nm / absorbance at 460 nm: quantity giving 1% at 400 nm; for Colored (visual): visual examination; for absorbance at 400 nm: quantity adjusted so that value at 400 nm became 1%
Protocol: To 15 g of polyethylene terephthalate, the exemplified compounds (81) and (82) were added, respectively, in a quantity such that absorbance at 400 nm became 1% at the time of forming a film with a thickness of 50 μm. After fusion mixing at 265° C., UV agent-containing polymer films (401) and (402) were prepared by cooling and stretching. Further, UV agent-containing polymer films (403) and (404) were prepared by mixing and thin film-making in the same manner as the above films, except that a comparative compound Za and the abovementioned comparative compound 12 were used in place of the exemplified compounds.
A degree of coloring in each of the prepared samples was evaluated by measuring absorbance of the sample at 420 nm 440 nm and 460 nm, and also by examining them visually.

[3] = Light fastness of ethyl acetate solutions under xenon lamp irradiation (Example 39); details: ethyl acetate solution, xenon lamp with UV filter removed, 170,000 lux, one week; transmittance at maximum absorption wavelength
Protocol: Was dissolved 5 mg of the exemplified compound (1) in 100 mL of ethyl acetate and then the resulting solution was diluted with ethyl acetate so that absorbance became the range of from 0.95 to 1.05. Similarly, sample solutions of Exemplified Compounds (2), (11), (12), (24), (81) and (82) and comparative compounds A and B, respectively, were prepared. The absorbance of each sample solution was determined in a 1 cm quartz cell by using Spectrophotometer UV-3600 (product name) manufactured by Shimadzu Corporation. The cell containing the sample solution was photoirradiated by a xenon lamp with its UV filter removed at an illuminance of 170,000 lux, and the amount of each ultraviolet absorbent remaining after irradiation for one week was determined. The residual amount was calculated according to the following Formula: Residual amount (%)=100×(100−Transmittance after irradiation)/(100−Transmittance before irradiation)
The transmittance is a value determined at the maximum absorption wavelength of each compound.

Half width (nm) [1]	ε, molar extinction coefficient at the maximum absorption wavelength [1]	λmax (nm), maximum absorption wavelength [1]	coloring of the film (in words) [2]	absorbance at 420 nm [2]	absorbance at 440 nm [2]	absorbance at 460 nm [2]	Colored (visual) [2]	absorbance at 400 nm [2]	Residual amount (%) [3]	SMILES
45 nm	24000	369 nm								CCCCC(CC)C(=O)Oc1ccc(OC(=O)C(CC)CCCC)c2c1SC(=C(C#N)C#N)S2 (centres unmarked) [Comparative compound 1]
46 nm	23000	363 nm								CCCCCCCCCCCCOc1ccc(OCCCCCCCCCCCC)c2c1SC(=C(C#N)C#N)S2 [Comparative compound 2]
39 nm	28000	360 nm	coloring was also observed	65%	72%	78%	Δ to x	1%		CCCCC(CC)COc1ccc(OCC(CC)CCCC)c2c1SC(=C(C#N)C(=O)OCC)S2 (centres unmarked) [Comparative compound 12]
									76%	COc1ccc(C(=O)c2ccc(OC)cc2O)c(O)c1 [Comparative compound A]
									38%	COc1ccc(C(=O)CC(=O)c2ccc(C(C)(C)C)cc2)cc1 [Comparative compound B]
			more colored yellow	45%	65%	85%	x	1%		CC(C)(C)CC(C)(C)c1cc(Cc2cc(C(C)(C)CC(C)(C)C)cc(-n3nc4ccccc4n3)c2O)c(O)c(-n2nc3ccccc3n2)c1 [Za]
